Data from the NIST ThermoML archive (doi:10.1016/j.jct.2009.12.002).
Where “and” joins values, the source holds several entries; their conditions need not be identical. Identical values can stand only once. Numbers after ± are expanded uncertainties.

Details: Liquid; for mass density: 101.33 kPa, Pycnometric method; for speed of sound: Pulse-echo method

CC(C)CCCCCCCOC(=O)c1ccccc1C(=O)OCCCCCCCC(C)C
Details	mass density
273.84 K	980.22 ± 0.39 kg/m3
274.06 K	980.07 ± 0.39 kg/m3
274.07 K	980.08 ± 0.39 kg/m3
274.35 K	979.86 ± 0.39 kg/m3
282.95 K	973.75 ± 0.38 kg/m3
298.25 K	962.88 ± 0.36 kg/m3
298.28 K	962.83 ± 0.37 kg/m3
305.26 K	957.83 ± 0.37 kg/m3
313.27 K	952.21 ± 0.38 kg/m3 and 952.15 ± 0.38 kg/m3
333.28 K	937.93 ± 0.4 kg/m3
353.29 K	923.76 ± 0.43 kg/m3
373.29 K	909.62 ± 0.46 kg/m3
393.31 K	895.47 ± 0.48 kg/m3
413.33 K	881.29 ± 0.51 kg/m3

Details	speed of sound [m/s]
293.06 K, 1185 kPa	1436.6 ± 3
298.08 K, 1100 kPa	1419.9 ± 3
298.08 K, 5400 kPa	1439 ± 3
298.08 K, 10180 kPa	1459.7 ± 3
298.08 K, 16980 kPa	1488 ± 3.1
298.08 K, 25560 kPa	1522 ± 3.2
298.08 K, 32760 kPa	1549.3 ± 3.2
298.08 K, 40150 kPa	1576.5 ± 3.3
298.08 K, 47800 kPa	1602.9 ± 3.3
298.08 K, 55510 kPa	1629.7 ± 3.4
298.08 K, 62350 kPa	1652.4 ± 3.4
313.18 K, 1050 kPa	1367.8 ± 2.9
313.18 K, 1110 kPa	1367.9 ± 2.9
313.18 K, 15410 kPa	1432.5 ± 3
313.18 K, 29860 kPa	1491.8 ± 3.1
313.18 K, 44860 kPa	1548.5 ± 3.2
313.18 K, 60370 kPa	1602.9 ± 3.3
313.18 K, 75510 kPa	1652.4 ± 3.4
313.18 K, 89970 kPa	1697 ± 3.5
313.18 K, 105660 kPa	1742.8 ± 3.6
313.18 K, 119950 kPa	1782.4 ± 3.7
333.24 K, 1100 kPa	1304.1 ± 2.7
333.24 K, 1130 kPa	1304.1 ± 2.7
333.24 K, 14910 kPa	1370.1 ± 2.9
333.24 K, 29760 kPa	1434.3 ± 3
333.24 K, 45000 kPa	1494.4 ± 3.1
333.24 K, 60580 kPa	1551.1 ± 3.2
333.24 K, 75550 kPa	1601.7 ± 3.3
333.24 K, 90480 kPa	1649.2 ± 3.4
333.24 K, 105430 kPa	1694 ± 3.5
333.24 K, 120280 kPa	1736.3 ± 3.6
333.24 K, 139660 kPa	1788.5 ± 3.7
353.18 K, 1010 kPa	1241.9 ± 2.6
353.18 K, 1280 kPa	1243.1 ± 2.7
353.18 K, 10060 kPa	1288.5 ± 2.7
353.18 K, 19830 kPa	1335.3 ± 2.8
353.18 K, 29890 kPa	1380.3 ± 2.9
353.18 K, 40170 kPa	1423.1 ± 3
353.18 K, 50230 kPa	1462.7 ± 3
353.18 K, 60350 kPa	1500.4 ± 3.1
353.18 K, 70310 kPa	1535.6 ± 3.2
353.18 K, 80170 kPa	1569 ± 3.2
353.18 K, 90020 kPa	1601 ± 3.3
353.18 K, 104640 kPa	1646 ± 3.4
353.18 K, 122120 kPa	1697.1 ± 3.5
353.18 K, 139450 kPa	1745 ± 3.6
373.1 K, 460 kPa	1179.1 ± 2.5
373.1 K, 1150 kPa	1183.1 ± 2.5
373.1 K, 1350 kPa	1184.4 ± 2.5
373.1 K, 10370 kPa	1233.7 ± 2.6
373.1 K, 20030 kPa	1282.4 ± 2.7
373.1 K, 29930 kPa	1328.6 ± 2.8
373.1 K, 40300 kPa	1373.8 ± 2.9
373.1 K, 50050 kPa	1413.5 ± 2.9
373.1 K, 60040 kPa	1452 ± 3
373.1 K, 70060 kPa	1488.7 ± 3.1
373.1 K, 80050 kPa	1523.7 ± 3.2
373.1 K, 90060 kPa	1557.2 ± 3.2
373.1 K, 100440 kPa	1590.2 ± 3.3
373.1 K, 110260 kPa	1620.7 ± 3.3
373.1 K, 120180 kPa	1649.7 ± 3.4
373.1 K, 130570 kPa	1679.6 ± 3.5
373.1 K, 140300 kPa	1707 ± 3.5
393.54 K, 1240 kPa	1125.2 ± 2.4
393.54 K, 1280 kPa	1125.4 ± 2.4
393.54 K, 14940 kPa	1203.3 ± 2.5
393.54 K, 29730 kPa	1277.1 ± 2.7
393.54 K, 44510 kPa	1343.3 ± 2.8
393.54 K, 59690 kPa	1404.8 ± 2.9
393.54 K, 75010 kPa	1462 ± 3
393.54 K, 104930 kPa	1563 ± 3.2
393.54 K, 122450 kPa	1616.7 ± 3.3
393.54 K, 139770 kPa	1666.6 ± 3.4
413.41 K, 1110 kPa	1069.6 ± 2.3
413.41 K, 1130 kPa	1069.8 ± 2.3
413.41 K, 14800 kPa	1152.3 ± 2.5
413.41 K, 29640 kPa	1229.8 ± 2.6
413.41 K, 45070 kPa	1301.7 ± 2.7
413.41 K, 60270 kPa	1365.4 ± 2.8
413.41 K, 75540 kPa	1423.9 ± 3
413.41 K, 90150 kPa	1476 ± 3.1
413.41 K, 105150 kPa	1526 ± 3.2
413.41 K, 119720 kPa	1571.9 ± 3.2
413.41 K, 139510 kPa	1630.3 ± 3.4
